{"source": "paper PMC8881077", "about": "(Journal of Enzyme Inhibition and Medicinal Chemistry, 2022)", "key": {"[1]": {"tested_on": "SPF Kunming mice", "assay": "Acute toxicity", "type": "in vivo", "method": "Kunming mice at a body weight of 18–22 g (six weeks old, either gender) were supplied by the Centre of Experimental Animals of Sichuan Academy of Chinese Medicine Sciences (eligibility certification no. SCXK-Chuan2018-19). Mice were maintained under standard conditions with a 12 h:12 h light-dark cycle at 20−22 °C with a relative humidity of 60 − 70%. Sterile food and water were provided according to institutional guidelines. Prior to each experiment, mice were fasted overnight and allowed free access to water. […] After the administration of the compound 5f, the mice were observed continuously for the first 4 h for any abnormal behaviour and mortality changes, intermittently for the next 24 h, and occasionally thereafter for 14 days for the onset of any delayed effects. All animals were sacrificed on the 14th day after drug administration and were macroscopically examined for possible damage to the heart, liver, and kidneys."}, "[2]": {"tested_on": "normal human hepatocytes cell line (LO2)", "assay": "Hepatotoxicity on LO2 cells", "type": "cell-based", "details": "2.5 μM to 80.0 μM", "method": "The anti-AD drug tacrine has been forced to withdraw due to severe hepatotoxicity. Thus, the hepatotoxicity of compounds 5f on normal human hepatocytes cell line (LO2) was evaluated using MTT assay. […] Furthermore, the hepatoprotective activity of compound 5f on H2O2-induced live injury was tested using an MTT assay. […]\n• Materials. LO2 cells purchased from Wuhan Punosi Life Technology Co., Ltd. 30% H2O2, Trichloroacetic acid (TCA), SRB, DMEM medium (HyClone), Foetal bovine serum (LNSER, article number: S711-001S), Penicillin streptomycin mixture (double antibiotic) (Solarbio), 0.25% trypsin-EDTA digestive juice (Solarbio), DMSO (Solarbio), Potassium dihydrogen phosphate (Xiyu Science Co., Ltd., CAS: 7778-77-0); Ultra-clean workbench (Wuxi Easy Purification Equipment Co., Ltd., model: SW-CJ-VS2); Carbon dioxide incubator (Esco, model: 2014-88759); […]; • Experiment method. (a) Cell culture: cultured in DMEM medium containing 10% FBS and 1% double-antibody, placed in 37 °C, 5% CO2 constant temperature and humidity incubator, changed every 2 days, subcultured when cells were 90% confluent. […] The OD value was measured at 515 nm using a microplate reader. […] After treatment with H2O2 for 6h, the survival rate was measured by the SRB method."}, "[3]": {"assay": "in vitro", "details": "PAMPA"}, "[4]": {"tested_on": "scopolamine-induced mice memory impairment", "assay": "Step-down passive avoidance task", "details": "scopolamine 3 mg/kg", "description": "Sixty mice were randomly divided into six groups. […] After 30 min, memory impairment was induced by administering scopolamine (3 mg/kg)."}}}
{"smiles": "CCN(CCCCCOc1cc(O)c2c(c1)OC(c1ccc(O)cc1)CC2=O)Cc1ccccc1", "note": "(centres unmarked) [Compound 5f, 7-((5-(benzyl(ethyl)amino)pentyl)oxy)-5-hydroxy-2–(4-hydroxyphenyl)chroman-4-one]", "values": [{"measurement": "acute toxicity, recovery", "setting": "[1]; after 24h", "value": "returned to normal"}, {"measurement": "acute toxicity, heart, liver, spleen, lung and kidney", "setting": "[1]; after 7 days", "value": "no abnormalities were observed"}, {"measurement": "acute toxicity, observed signs", "setting": "[1]; dose of 500 mg/kg, intragastric", "value": "decreased spontaneous activity and movement, drowsiness, dyspnoea and reduced breathing rate"}, {"measurement": "LO2 cell viability (hepatotoxicity)", "setting": "[2]", "value": "did not show an obvious change until the concentration increased to 40.0 μM"}, {"measurement": "Papp at 100 μg/mL", "setting": "[3]", "value": "6.9 ± 0.36", "unit": "×10⁻⁶ cm/s"}, {"measurement": "step-down latency", "setting": "[4]; 1.9 mg/kg", "value": 153.7, "unit": "s"}, {"measurement": "step-down latency", "setting": "[4]; 5.7 mg/kg", "value": 183.4, "unit": "s"}, {"measurement": "step-down latency", "setting": "[4]; 17.1 mg/kg", "value": 207.8, "unit": "s"}]}
